Results taken from patent publication US10940144B2, “Drug containing pyridylaminoacetic acid compound” (priority 2017, dated 2021).

Tests used:
[1] = test system: optic nerve head tissue blood flow; assay: Pharmacological Test 4: optic nerve head tissue blood flow (laser speckle flowgraphy) after repeated instillation of omidenepag isopropyl to rabbits; type: in vivo, rabbit; conditions: for Base-Corrected Optic Nerve Head Tissue Blood Flow Change Rate (%): 0.002% (w/v) (20 μg/mL), 50 μL instilled once a day for 14 days, rabbit, average of four animals
Procedure: In order to find a new medicinal use of omidenepag, an ester thereof, or a salt thereof, the action of increasing tissue blood flow in the optic nerve head in the case of instilling omidenepag isopropyl to rabbits was examined.
Omidenepag isopropyl, polyoxyl 35 castor oil, glycerin, sodium citrate, sodium edentate, and benzalkonium chloride were added and dissolved into purified water to adjust the pH. Thereafter, purified water was added to adjust the total volume, thereby preparing a 0.002 w/v % omidenepag isopropyl solution (omidenepag isopropyl sample 3).
The base D and omidenepag isopropyl sample 3 as test compound solutions, each at 50 μL, were instilled (ophthalmic solution, once a day, repeated instillation for 14 days) to examine the change in optic nerve head tissue blood flow. In addition, pigmented rabbits (strain: Dutch, sex: male, four animals per group) were used as experimental animals.
1) After holding the above experimental animals, one drop (about 0.03 mL) of a 0.4% tropicamide ophthalmic solution (trade name: Mydrin-M ophthalmic solution 0.4%) was instilled into the optic nerve head tissue blood flow measurement eye to fully dilate the pupil. Thereafter, laser speckle flowgraphy (LSFG-NAVI manufactured by Softcare Co., Ltd.) was used to measure the tissue blood flow in the optic nerve head of the measurement eye.
2) The test compound solutions were instilled at 50 μL into one eye (optic nerve head tissue blood flow measurement eye) of each of the experimental animals once a day for 14 days (the contralateral eye was untreated).
3) At 1 hour and 2 hours after administration of each test compound solution at day 1, day 7, and day 14 after administration of each test compound solution, the optic nerve head tissue blood flow of the optic nerve head tissue blood flow measurement eye was measured.
(a) The ratio of the optic nerve head tissue blood flow after passage of each of the time periods of 1 hour and 2 hours after administration of each test compound solution at day 1, day 7, and day 14 after the start of administration of each test compound solution to the optic nerve head tissue blood flow immediately before administration (optic nerve head tissue blood flow change rate (%)) was calculated. [Optic Nerve Head Tissue Blood Flow Change Rate (%) After Passage of Each Time Period After Administration]=[Optic Nerve Head Tissue Blood Flow After Passage of Each Time Period After Administration]/[Optic Nerve Head Tissue Blood Flow Immediately Before Administration]×100
(b) For each time period after administration, the difference (base-corrected optic nerve head tissue blood flow change rate (%)) was calculated between the optic nerve head tissue blood flow change rate (%) of the group administered with the base D simultaneously carried out and the optic nerve head tissue blood flow change rate (%) of the group administered with omidenepag isopropyl sample 3. [Base-Corrected Optic Nerve Head Tissue Blood Flow Change Rate (%) After Passage of Each Time Period]=[Optic Nerve Head Tissue Blood Flow Change Rate (%) After Passage of Each Time Period After Administration of Omidenepag Isopropyl Sample 3]−[Optic Nerve Head Tissue Blood Flow Change Rate (%) After Passage of Each Time Period After Administration of Base D]
(c) The base-corrected optic nerve head tissue blood flow change rate (%) of (a) and (b) above was calculated for four experimental animals in each group, and the average thereof was defined as the value of the “base-corrected optic nerve head tissue blood flow change rate (%).”

retinal blood vessels = assay: Pharmacological Test 2: retinal vasodilatory action (retinal vascular diameter) after intravitreal administration of omidenepag isopropyl to rabbits; type: in vivo, rabbit; conditions: for Base-Corrected Retinal Vascular Diameter Change Rate (%) 1 Hour After Administration / Base-Corrected Retinal Vascular Diameter Change Rate (%) 2 Hours After Administration / Base-Corrected Retinal Vascular Diameter Change Rate (%) 6 Hours After Administration / Base-Corrected Retinal Vascular Diameter Change Rate (%) 24 Hours After Administration / Base-Corrected Retinal Vascular Diameter Change Rate (%) 48 Hours After Administration: 20 μL intravitreal single injection, pigmented rabbits
Procedure: (a) The fundus images captured immediately before the administration, 1 hour, 2 hours, 6 hours, and 24 hours after the administration were used to measure, as the vascular diameters, (i) the vascular diameter of the retinal artery on the nose side, (ii) the vascular diameter of the retinal artery on the ear side, and (iii) the optic nerve head diameter (longitudinal diameter passing through the center of the optic nerve head).
(b) The average value of (i) the vascular diameter of the retinal artery on the nose side and (ii) the vascular diameter of the retinal artery on the ear side measured from the fundus images for each time period was divided by (iii) the optic nerve head diameter to calculate the corrected retinal vascular diameter. [Corrected Retinal Vascular Diameter]=(([(i) Vascular Diameter of Retinal Artery on Nose Side]+[(ii) Vascular Diameter of Retinal Artery on Ear Side])/2)/([(iii) Optic Nerve Head Diameter])
(c) The ratio of the corrected retinal vascular diameter after passage of each of the time periods of 1 hour, 2 hours, 6 hours, and 24 hours after administration to the corrected retinal vascular diameter immediately before administration (retinal vascular diameter change rate (%)) was calculated. [Retinal Vascular Diameter Change Rate (%) After Passage of Each Time Period After Administration]=[Corrected Retinal Vascular Diameter After Passage of Each Time Period After Administration]/[Corrected Retinal Vascular Diameter Immediately Before Administration]×100
(d) For each time period after administration, the difference (base-corrected retinal vascular diameter change rate (%)) was calculated between the retinal vascular diameter change rate (%) of the group administered with the base simultaneously carried out and the retinal vascular diameter change rate (%) of the groups administered with samples (omidenepag samples 1 and 2, and CP-544326 samples 1 and 2). [Base-Corrected Retinal Vascular Diameter Change Rate (%) After Passage of Each Time Period]=[Retinal Vascular Diameter Change Rate (%) After Passage of Each Time Period After Administration of Samples]−[Retinal Vascular Diameter Change Rate (%) After Passage of Each Time Period After Administration of Base]
(e) The base-corrected retinal vascular diameter change rate (%) of (a) to (d) above was calculated for three experimental animals in each group, and the average thereof was defined as the value of the “base-corrected retinal vascular diameter change rate (%).”
In order to find anew medicinal use of omidenepag, an ester thereof, or a salt thereof, the retinal vasodilatory action in the case of administering omidenepag isopropyl to rabbits was examined.
Omidenepag isopropyl at 3.98 mg was dissolved in dimethyl sulfoxide to a total volume of 118 μL. Of the total volume, 10 μL was added and dissolved into physiological saline, and an appropriate amount of sodium hydroxide solution was added to adjust the pH of the formulation to 6.4. Thereafter, physiological saline was further added to a total volume of 10 mL to obtain omidenepag isopropyl sample 1 (containing 0.00338% (w/v) (33.8 μg/mL) of omidenepag isopropyl). In addition, the base B was added to 0.1 mL of omidenepag isopropyl sample 1 to a total volume of 10 mL, and omidenepag isopropyl sample 2 was obtained (containing 0.0000338% (w/v) (0.338 μg/mL) of omidenepag isopropyl).
In the same method as that in Pharmacological Test 1, the base B and omidenepag isopropyl samples 1 and 2, each at 20 μL, were administered intravitreally (injection, single time) to examine the change in retinal vascular diameter. Note that, 1 hour, 2 hours, 6 hours, 24 hours, and 48 hours after administration of each test compound solution, fundus images of the retinal vascular diameter measuring eyes were captured, and the retinal vascular diameters and the like were measured from the obtained fundus images. […]

Structure (SMILES): CC(C)OC(=O)CNc1cccc(CN(Cc2ccc(-n3cccn3)cc2)S(=O)(=O)c2cccnc2)n1 [Omidenepag Isopropyl, isopropyl (6-{[4-(pyrazol-1-yl)benzyl](pyridin-3-ylsulfonyl)aminomethyl}pyridin-2-ylamino)acetate]
- blood flow increasing action, optic nerve head (in words) ([1]; 0.002 w/v % solution, 50 μL instillation once a day for 14 days, rabbits): good blood flow increasing action
- Base-Corrected Optic Nerve Head Tissue Blood Flow Change Rate (%) ([1]; Day 1, 1 hour after administration): 7.2%
- Base-Corrected Optic Nerve Head Tissue Blood Flow Change Rate (%) ([1]; Day 1, 2 hours after administration): 6.3%
- Base-Corrected Optic Nerve Head Tissue Blood Flow Change Rate (%) ([1]; Day 7, 1 hour after administration): 9.9%
- Base-Corrected Optic Nerve Head Tissue Blood Flow Change Rate (%) ([1]; Day 7, 2 hours after administration): 12.4%
- Base-Corrected Optic Nerve Head Tissue Blood Flow Change Rate (%) ([1]; Day 14, 1 hour after administration): 13.6%
- Base-Corrected Optic Nerve Head Tissue Blood Flow Change Rate (%) ([1]; Day 14, 2 hours after administration): 11.5%
- Base-Corrected Retinal Vascular Diameter Change Rate (%) 1 Hour After Administration (retinal blood vessels; 0.0000338% (w/v) (0.338 μg/mL)): 25.1%
- Base-Corrected Retinal Vascular Diameter Change Rate (%) 2 Hours After Administration (retinal blood vessels; 0.0000338% (w/v) (0.338 μg/mL)): 34.5%
- Base-Corrected Retinal Vascular Diameter Change Rate (%) 6 Hours After Administration (retinal blood vessels; 0.0000338% (w/v) (0.338 μg/mL)): 18.4%
- Base-Corrected Retinal Vascular Diameter Change Rate (%) 24 Hours After Administration (retinal blood vessels; 0.0000338% (w/v) (0.338 μg/mL)): 6.8%
- Base-Corrected Retinal Vascular Diameter Change Rate (%) 48 Hours After Administration (retinal blood vessels; 0.0000338% (w/v) (0.338 μg/mL)): 1.7%
- Base-Corrected Retinal Vascular Diameter Change Rate (%) 1 Hour After Administration (retinal blood vessels; 0.00338% (w/v) (33.8 μg/mL)): 58.4%
- Base-Corrected Retinal Vascular Diameter Change Rate (%) 2 Hours After Administration (retinal blood vessels; 0.00338% (w/v) (33.8 μg/mL)): 81.7%
- Base-Corrected Retinal Vascular Diameter Change Rate (%) 6 Hours After Administration (retinal blood vessels; 0.00338% (w/v) (33.8 μg/mL)): 73.8%
- Base-Corrected Retinal Vascular Diameter Change Rate (%) 24 Hours After Administration (retinal blood vessels; 0.00338% (w/v) (33.8 μg/mL)): 16.0%
- Base-Corrected Retinal Vascular Diameter Change Rate (%) 48 Hours After Administration (retinal blood vessels; 0.00338% (w/v) (33.8 μg/mL)): 0.0%
- durability of retinal vasodilatory action compared with omidenepag (in words) (retinal blood vessels; both 65.0 μM, 24 hours after intravitreal administration, rabbits): amore durable action than omidenepag
- retinal vasodilatory action (in words) (retinal blood vessels; intravitreal, rabbits): significantly strong retinal vasodilatory action
